Laboratory results as given in patent publication US11918650B2, “Pharmaceutical composition comprising bispecific antibody constructs for improved storage and administration” (AMGEN INC., priority 2017, dated 2024).

How the values were obtained:
[1] = system: CD19×CD3 bispecific antibody construct; experiment: Preservative compatibility, percent HMW species by SEC-HPLC at pH 4; format: physicochemical; conditions: CD19×CD3 bispecific antibody construct 0.8 mg/mL, 10 mM glutamate pH 4.0, 9% sucrose, 0.01% polysorbate 80; preservative conc. of Table 4; 25° C., 14 days
Description: In order to investigate the compatibility of known preservatives with a representative bispecific antibody construct according to the present invention, CD19×CD3 bispecific antibody construct was formulated in the presence of respective known preservatives with parameters as set out in Table 4.
The chosen preservative concentrations reflected standard concentrations employed in the art. The respective formulations were stored at 25° C. for 14 days and examined on day 0, 1, 3, 7 and 14 by size exclusion chromatography (SEC-HPLC).

[2] = system: CDR-H3 region (YISYW) of anti-CD3 domain; experiment: Hydrogen-deuterium exchange (HDX) mass spectrometry, effects of citrate and benzyl alcohol; format: physicochemical; conditions: addition to Tris-phosphate pH 6.0, 50 mM citrate, 0.9% benzyl alcohol
Excerpt: Hydrogen-deuterium exchange (HDX) is a chemical reaction in which a covalently bonded hydrogen atom is replaced by a deuterium atom, or vice versa. It can be applied most easily to exchangeable protons and deuterons, where such a transformation occurs in the presence of a suitable deuterium source, without any catalyst. The method gives information about the solvent accessibility of various parts of the molecule, and thus the tertiary structure of the protein.
Model anti-FAPα domain, isolated anti-CD3 domain (I2C, as typically used throughout all example bispecific antibody constructs), CD33×CD3 bispecific antibody construct and EGFRvIII×CD3 bispecific antibody construct were examined. For FAPα, anti-CD3 domain, and CD33×CD3 bispecific antibody construct, the experimental procedure was same. Firstly, the protein samples were dialyzed into Tris-phosphate buffer (35 mM Tris, 17.5 mM phosphate, pH 6.0) and (35 mM Tris, 17.5 mM phosphate, 50 mM citrate, pH 6.0), respectively. The protein concentration was adjusted to 0.3 mg/mL after dialysis. […] Thirdly, the HDX reaction was quenched after 10s, 1 min, 10 min, 1 hr, 4 hr, and 12 hr, and then the quenched protein samples were analyzed by mass spectrometry. […] Thirdly, the HDX reaction was quenched after 10s, 10 min, 2 hr, 8 hr, 16 hr, 24 hr, and then the quenched protein samples were analyzed by mass spectrometry. […]

[3] = Frozen stability at −20° C. over 4 weeks, HMW species (FIG. 9, 10); format: physicochemical; conditions: DLL3×CD3, pH 4
[4] = system: Micrococcus luteus (ATCC 4698); experiment: Microbial challenge study in IV bags; format: cell-based; conditions: 20-25° C.
Description: (§1) This example was a microbial challenge study in support of CD19×CD3 bispecific antibody construct drug product (DP) administered via an intravenous (IV) bag. The study was performed to evaluate the ability of different concentrations (0.5%-0.74%) of benzyl alcohol (BeOH) to reduce or eliminate microbial growth in IV bags holding blinatumomab infusion solution containing benzyl alcohol, CD19×CD3 bispecific antibody construct DP, and intravenous solution stabilizer (IVSS) kept at 20-25° C. for up to 14 days.
(§2) The study was carried out to evaluate the growth of six different microorganisms in IV bags filled with 109 mL of CD19×CD3 bispecific antibody construct infusion solution containing benzyl alcohol (BeOH, at a final concentration of 0.0%, 0.5%, 0.6% or 0.74%), CD19×CD3 bispecific antibody construct DP, and IVSS. The prepared IV bags were held at 20-25° C. for up to 14 days.
(§3) The bacteria and yeast selected for the study are representative of known human pathogens commonly isolated from nosocomial infections. These microorganisms include Candida albicans (ATCC 10231), Enterobacter cloacae (ATCC 13047), Escherichia coli (ATCC 8739), Micrococcus luteus (ATCC 4698), Pseudomonas aeruginosa (ATCC 9027), and Staphylococcus aureus (ATCC 6538).
(§4) Test Articles: The test articles assessed in the study were blinatumomab infusion solution filled in IV bags containing 1.91 μg/mL conc. blinatumomab in a total volume of 109 mL/bag. The solution was made up by the addition of 2.2 mL IVSS, 16.8 mL of pooled reconstituted blinatumomab DP (210 μg), and a combined total volume of 90 mL of saline solution and saline solution with 0.9% benzyl alcohol (basaline). The four different levels of BeOH (0.0%, 0.5%, 0.6% and 0.74%) assessed in the study were achieved by adding different amounts of saline and basaline. For example, the bag with 0.0% BeOH (positive control) was prepared by adding 90 mL of saline, while the bag with 0.6% BeOH was prepared by adding 18 mL saline and 72 mL 0.9% bsaline, to the 2.2 mL IVSS and 16.8 mL blinatumomab DP. Refer to Appendix A for more details. Note that the illustration for 0.0% BeOH positive control in FIG. 1 (Schematic of IV Bag Preparation) of Appendix A of this report and in the same illustration in FIG. 4 of Appendix D inadvertently stated the final BeOH concentration to be 0.5%, instead of 0.0%. This is a typographic error and has no impact on the study outcome.
(§5) A total of 24 CD19×CD3 bispecific antibody construct infusion solution filled IV bags were assessed to evaluate the effect of four levels of benzyl alcohol on the aforementioned six different microorganisms (6×4=24). An approximate 1 mL of inoculum containing <1×10^4 CFU microbes was inoculated through the injection port into each bag that yielded an initial microbial load at ˜1×10^2 CFU/mL. After inoculation, the sampling port on the bag was cleaned with sterile IPA and the bag was mixed briefly and then incubated at 20-25° C.
(§6) Sampling and titration procedures: At each time point of 0-hour, 4-day, 8-day, 10-day, 12-day and 14 day, a 3 mL aliquot was collected from each assessed bag and titrated.
(§7) Sample titration was performed by membrane filtration in duplicate of 1 mL aliquots for each timed sample. Additional dilutions were performed to obtain countable results (<300 CFU/plate).

[5] = system: Staphylococcus aureus (ATCC 6538); experiment: Microbial challenge study in IV bags; format: cell-based; conditions: 20-25° C.
Description: as §1, §2, §3, §4, §5, §6, §7

[6] = system: Enterobacter cloacae (ATCC 13047); experiment: Microbial challenge study in IV bags; format: cell-based; conditions: 20-25° C.
Description: as §1, §2, §3, §4, §5, §6, §7

[7] = system: Escherichia coli (ATCC 8739); experiment: Microbial challenge study in IV bags; format: cell-based; conditions: 20-25° C.
Description: as §1, §2, §3, §4, §5, §6, §7

[8] = system: Candida albicans (ATCC 10231); experiment: Microbial challenge study in IV bags; format: cell-based; conditions: all three levels of BeOH (0.5%, 0.6%, 0.74%) in blinatumomab infusion solution; 20-25° C.
Description: as §1, §2, §3, §4, §5, §6, §7

[9] = system: Pseudomonas aeruginosa (ATCC 9027); experiment: Microbial challenge study in IV bags; format: cell-based; conditions: 20-25° C.
Description: as §1, §2, §3, §4, §5, §6, §7

[10] = system: CD19×CD3 bispecific antibody constructs; experiment: Denaturation assay (guanidinium chloride) with fluorescence detection; format: physicochemical; conditions: 2.5 hours at 25° C., pH 7; excitation 280 nm, emission 300 to 400 nm
Description: FIG. 4: Denaturation diagram of CD19×CD3 bispecific antibody constructs at a concentration of 1 mg/ml in presence or absence of preservative benzyl alcohol as determined by fluorescence spectrometry […].
Improved stability of a representative bispecific antibody construct of the present invention conferred by a preservative such as benzyl alcohol was further examined by a denaturation assay using fluorescence as detection means. Experimental conditions comprised guanidinium chloride as denaturant which concentration was plotted on the x-axis (see FIG. 4). Incubation time was 2.5 hours at 25° C. at near-physiologic pH 7. Fluorescence excitation was set to 280 nm and the emission scan was run from 300 to 400 nm. The percentile denaturated fraction was calculated from the fluoresces assay as standard in the art. The result can be seen in FIG. 4. The grey curve represents the formulation comprising benzyl alcohol, the black curve the formulation without preservative. […] This means that it takes more denaturant to unfold this region, i.e. the CD3 domain, which translates into improved stability conferred by the preservative.

[11] = 0.5% or 0.6% BeOH in blinatumomab infusion solution
[12] = 0.74% BeOH in blinatumomab infusion solution
[13] = 0.5%, 0.6% and 0.74% BeOH in blinatumomab infusion solution, inoculum 100 CFU/mL
[14] = all three assessed concentrations (0.5%, 0.6%, 0.74%), up to 14 days

## Oc1ccccc1 [phenol]
[1]
  percent high molecular weight (HMW) species over time: HMW values overall remain constant

## O=C(O)CC(O)(CC(=O)O)C(=O)O [citrate]
[2]
  conformational dynamics of the region of residues 366-370 (YISYW) versus formulation of Tris-phosphate: reduces the conformational dynamics of this region

## COC(=O)c1ccc(O)cc1 [methylparabene, methylparaben]
[1]
  percent high molecular weight (HMW) species over time: decrease in the percent high molecular weight (HMW) species over time

## OCc1ccccc1 [benzyl alcohol]
[3]
  benzyl alcohol concentration at which stabilizing effect on frozen stability is best: above 0.1%
[4]; [11]
  day on which challenged M. luteus was unrecoverable: 14 days
[4]; [12]
  day on which challenged M. luteus was unrecoverable: 8 days
[5]; [11]
  day on which challenged S. aureus inoculum became unrecoverable: 8 days
[5]; [12]
  day on which challenged S. aureus inoculum became unrecoverable: 4 days
[6]; [13]
  day from which no E. cloacae was recoverable: 10 days
[6]; [14]
  growth of E. cloacae: completely inhibited
[7]; [13]
  day from which no E. coli was recoverable: 10 days
[7]; [14]
  growth of E. coli: completely inhibited
[8]
  day on which challenged C. albicans was unrecoverable: 8 days
[9]; [13]
  day from which no P. aeruginosa was recoverable: 4 days
[9]; [14]
  growth of P. aeruginosa: completely inhibited
[10]
  denaturation curve (denaturated fraction vs guanidinium chloride) with benzyl alcohol versus without preservative: shift to the right in the bottom portion of the curve
[2]
  conformational dynamics of the region of residues 366-370 (YISYW) versus formulation of Tris-phosphate: increases the conformational dynamics of this region

## C[CH2][Hg][S]c1ccccc1C(=O)[O-].[Na+] [Thimerosal, thimerosal]
[1]
  percent high molecular weight (HMW) species over time: slight increase in HWM over time
